Results reported in ChEMBL document CHEMBL5291721, “A preclinical secondary pharmacology resource illuminates target-adverse drug reaction associations of marketed drugs” (Nat Commun, 2023).

Experiments:
Bile salt export pump = Bile salt export pump (Homo sapiens, UniProt O95342); type: functional
[1] = target: Voltage-gated inwardly rectifying potassium channel KCNH2 (Homo sapiens, UniProt Q12809); type: functional
Mu-type opioid receptor = Mu-type opioid receptor (Homo sapiens, UniProt P35372)
Sequence of Mu-type opioid receptor (P35372 whole entry): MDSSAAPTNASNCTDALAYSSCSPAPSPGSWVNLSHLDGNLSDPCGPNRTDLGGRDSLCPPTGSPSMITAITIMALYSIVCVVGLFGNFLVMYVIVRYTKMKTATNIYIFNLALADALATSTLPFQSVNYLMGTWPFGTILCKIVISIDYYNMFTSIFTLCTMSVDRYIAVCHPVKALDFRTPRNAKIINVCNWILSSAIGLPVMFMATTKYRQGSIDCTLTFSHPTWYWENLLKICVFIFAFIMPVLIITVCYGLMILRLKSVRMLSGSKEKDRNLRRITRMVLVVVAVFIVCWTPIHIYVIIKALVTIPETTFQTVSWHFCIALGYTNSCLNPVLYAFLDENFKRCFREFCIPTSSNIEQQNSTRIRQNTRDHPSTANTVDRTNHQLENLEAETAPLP

D(1A) dopamine receptor = D(1A) dopamine receptor (Homo sapiens, UniProt P21728)
Histamine H3 receptor = Histamine H3 receptor (Homo sapiens, UniProt Q9Y5N1)
Sequence of Histamine H3 receptor (Q9Y5N1 whole entry): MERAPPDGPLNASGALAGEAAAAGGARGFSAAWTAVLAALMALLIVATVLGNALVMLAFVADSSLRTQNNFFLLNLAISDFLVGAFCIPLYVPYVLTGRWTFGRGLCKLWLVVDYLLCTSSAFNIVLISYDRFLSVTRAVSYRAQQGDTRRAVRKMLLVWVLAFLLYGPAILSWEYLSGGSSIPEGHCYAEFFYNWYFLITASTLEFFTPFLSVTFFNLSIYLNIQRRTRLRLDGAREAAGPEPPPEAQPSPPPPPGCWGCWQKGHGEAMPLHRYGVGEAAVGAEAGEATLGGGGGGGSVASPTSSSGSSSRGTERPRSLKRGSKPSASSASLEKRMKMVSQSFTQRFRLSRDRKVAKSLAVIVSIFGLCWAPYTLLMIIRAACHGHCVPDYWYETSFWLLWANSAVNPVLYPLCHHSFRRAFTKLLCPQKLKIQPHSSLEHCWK

[2] = target: Sodium-dependent noradrenaline transporter (Homo sapiens, UniProt P23975)
Sequence of Sodium-dependent noradrenaline transporter (P23975 whole entry): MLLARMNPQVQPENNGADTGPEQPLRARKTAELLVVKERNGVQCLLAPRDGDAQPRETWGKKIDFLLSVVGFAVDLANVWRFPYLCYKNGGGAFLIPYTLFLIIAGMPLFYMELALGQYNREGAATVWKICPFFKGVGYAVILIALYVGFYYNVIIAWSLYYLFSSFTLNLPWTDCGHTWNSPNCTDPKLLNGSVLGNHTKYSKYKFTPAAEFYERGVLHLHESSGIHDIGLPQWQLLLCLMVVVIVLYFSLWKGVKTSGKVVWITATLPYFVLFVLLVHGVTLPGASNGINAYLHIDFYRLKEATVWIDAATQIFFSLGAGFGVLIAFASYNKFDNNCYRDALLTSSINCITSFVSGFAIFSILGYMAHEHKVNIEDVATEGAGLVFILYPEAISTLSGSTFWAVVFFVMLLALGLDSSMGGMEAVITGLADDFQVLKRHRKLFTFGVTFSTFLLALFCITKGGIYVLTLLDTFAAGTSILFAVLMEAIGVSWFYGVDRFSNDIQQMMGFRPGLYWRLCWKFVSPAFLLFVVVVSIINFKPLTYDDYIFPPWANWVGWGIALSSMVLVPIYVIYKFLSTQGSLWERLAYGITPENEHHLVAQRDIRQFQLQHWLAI

[3] = target: T1, Amine oxidase [flavin-containing] A (Homo sapiens, UniProt P21397); type: functional
T1 sequence (P21397 whole entry): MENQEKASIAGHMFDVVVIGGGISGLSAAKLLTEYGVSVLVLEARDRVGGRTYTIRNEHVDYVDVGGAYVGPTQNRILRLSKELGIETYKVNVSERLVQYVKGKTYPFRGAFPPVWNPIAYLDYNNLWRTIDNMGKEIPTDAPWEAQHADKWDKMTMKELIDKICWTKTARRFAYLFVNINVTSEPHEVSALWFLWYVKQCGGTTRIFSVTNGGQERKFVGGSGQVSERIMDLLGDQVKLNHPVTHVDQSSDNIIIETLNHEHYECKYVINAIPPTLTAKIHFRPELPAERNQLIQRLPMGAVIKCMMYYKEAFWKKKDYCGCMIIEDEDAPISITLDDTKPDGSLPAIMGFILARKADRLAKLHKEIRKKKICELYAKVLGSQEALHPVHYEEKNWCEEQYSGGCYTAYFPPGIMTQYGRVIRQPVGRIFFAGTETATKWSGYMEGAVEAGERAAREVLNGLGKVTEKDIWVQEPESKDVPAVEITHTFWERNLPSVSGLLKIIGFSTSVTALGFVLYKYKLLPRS

Thromboxane A2 receptor [4] = target: T2, Thromboxane A2 receptor (Homo sapiens, UniProt P21731); type: functional, cell-based
T2 sequence (P21731 whole entry): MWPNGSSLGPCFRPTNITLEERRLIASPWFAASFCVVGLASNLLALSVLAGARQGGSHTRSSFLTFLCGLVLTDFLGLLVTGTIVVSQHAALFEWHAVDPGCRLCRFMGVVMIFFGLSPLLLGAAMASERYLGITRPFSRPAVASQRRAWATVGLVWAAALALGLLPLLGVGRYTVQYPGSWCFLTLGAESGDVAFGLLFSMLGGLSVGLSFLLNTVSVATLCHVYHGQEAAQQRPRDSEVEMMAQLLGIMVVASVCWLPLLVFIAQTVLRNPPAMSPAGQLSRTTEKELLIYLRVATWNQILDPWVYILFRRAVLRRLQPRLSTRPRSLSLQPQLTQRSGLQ

Acetylcholinesterase = Acetylcholinesterase (Homo sapiens, UniProt P22303); type: functional
[5] = target: T3, Muscarinic acetylcholine receptor M2 (Homo sapiens, UniProt P08172)
T3 sequence (P08172 whole entry): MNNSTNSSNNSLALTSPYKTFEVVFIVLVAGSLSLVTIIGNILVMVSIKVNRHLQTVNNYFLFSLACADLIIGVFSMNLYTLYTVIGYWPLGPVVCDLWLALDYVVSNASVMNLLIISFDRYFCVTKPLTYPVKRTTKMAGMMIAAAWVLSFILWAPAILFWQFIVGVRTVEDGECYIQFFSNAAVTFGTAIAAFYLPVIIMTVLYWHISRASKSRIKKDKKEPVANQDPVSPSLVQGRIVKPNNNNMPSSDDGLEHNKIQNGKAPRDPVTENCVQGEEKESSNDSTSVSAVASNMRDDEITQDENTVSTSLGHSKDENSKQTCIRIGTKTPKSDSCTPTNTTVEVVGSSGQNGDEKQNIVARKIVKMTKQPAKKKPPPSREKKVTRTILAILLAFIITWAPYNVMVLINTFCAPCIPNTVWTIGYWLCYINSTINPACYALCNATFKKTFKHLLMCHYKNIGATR

[6] = target: Sodium-dependent dopamine transporter (Homo sapiens, UniProt Q01959)
Sequence of Sodium-dependent dopamine transporter (Q01959 whole entry): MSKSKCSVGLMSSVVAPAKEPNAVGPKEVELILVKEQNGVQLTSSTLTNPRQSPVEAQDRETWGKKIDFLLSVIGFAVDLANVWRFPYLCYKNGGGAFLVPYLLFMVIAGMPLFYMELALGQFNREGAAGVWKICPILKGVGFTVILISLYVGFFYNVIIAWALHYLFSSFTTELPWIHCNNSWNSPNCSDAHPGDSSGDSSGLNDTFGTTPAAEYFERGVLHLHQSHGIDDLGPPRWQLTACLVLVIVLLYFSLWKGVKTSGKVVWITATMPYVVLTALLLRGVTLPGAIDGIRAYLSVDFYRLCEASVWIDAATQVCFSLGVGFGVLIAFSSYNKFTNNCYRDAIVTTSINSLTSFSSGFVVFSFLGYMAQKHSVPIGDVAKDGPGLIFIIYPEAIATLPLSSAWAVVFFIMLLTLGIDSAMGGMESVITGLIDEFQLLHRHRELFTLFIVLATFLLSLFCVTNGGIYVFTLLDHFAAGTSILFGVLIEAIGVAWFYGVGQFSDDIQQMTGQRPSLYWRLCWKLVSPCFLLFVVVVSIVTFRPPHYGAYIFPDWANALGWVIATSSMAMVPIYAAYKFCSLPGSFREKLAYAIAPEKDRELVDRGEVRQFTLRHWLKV

Thromboxane A2 receptor [7] = target: T2, Thromboxane A2 receptor; type: functional, cell-based; remark: listed apart in the source
Prothrombin = Prothrombin (Homo sapiens, UniProt P00734); type: functional
[8] = target: 5-hydroxytryptamine receptor 2B (Homo sapiens, UniProt P41595); type: functional, cell-based
D(3) dopamine receptor = D(3) dopamine receptor (Homo sapiens, UniProt P35462)
Sequence of D(3) dopamine receptor (P35462 whole entry): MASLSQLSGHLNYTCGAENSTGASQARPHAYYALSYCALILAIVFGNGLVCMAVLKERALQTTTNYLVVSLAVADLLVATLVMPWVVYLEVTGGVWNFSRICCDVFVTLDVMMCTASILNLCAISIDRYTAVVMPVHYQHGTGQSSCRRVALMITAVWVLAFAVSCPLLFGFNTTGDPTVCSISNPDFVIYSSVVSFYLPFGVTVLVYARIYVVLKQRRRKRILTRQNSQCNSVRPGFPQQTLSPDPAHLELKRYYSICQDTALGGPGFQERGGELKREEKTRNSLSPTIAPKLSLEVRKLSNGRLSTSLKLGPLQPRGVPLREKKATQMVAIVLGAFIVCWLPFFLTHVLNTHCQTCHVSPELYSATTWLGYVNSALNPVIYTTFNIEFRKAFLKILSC

[9] = target: T4, 5-hydroxytryptamine receptor 1A (Homo sapiens, UniProt P08908)
T4 sequence (P08908 whole entry): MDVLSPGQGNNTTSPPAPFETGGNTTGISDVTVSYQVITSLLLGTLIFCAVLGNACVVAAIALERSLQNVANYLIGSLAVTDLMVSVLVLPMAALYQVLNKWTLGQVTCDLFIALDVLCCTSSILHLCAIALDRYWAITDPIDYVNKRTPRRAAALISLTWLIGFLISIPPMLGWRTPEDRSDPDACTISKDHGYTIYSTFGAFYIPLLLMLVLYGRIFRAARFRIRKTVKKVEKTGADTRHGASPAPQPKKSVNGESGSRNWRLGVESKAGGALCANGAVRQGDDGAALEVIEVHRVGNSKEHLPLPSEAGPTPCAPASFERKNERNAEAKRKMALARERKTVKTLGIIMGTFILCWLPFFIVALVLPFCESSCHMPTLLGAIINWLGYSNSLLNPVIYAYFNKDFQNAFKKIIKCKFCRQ

[10] = target: Prostaglandin G/H synthase 1 (Homo sapiens, UniProt P23219); type: functional
Further: assay procedure not described here.

Sequence of Voltage-gated inwardly rectifying potassium channel KCNH2 (Q12809 whole entry): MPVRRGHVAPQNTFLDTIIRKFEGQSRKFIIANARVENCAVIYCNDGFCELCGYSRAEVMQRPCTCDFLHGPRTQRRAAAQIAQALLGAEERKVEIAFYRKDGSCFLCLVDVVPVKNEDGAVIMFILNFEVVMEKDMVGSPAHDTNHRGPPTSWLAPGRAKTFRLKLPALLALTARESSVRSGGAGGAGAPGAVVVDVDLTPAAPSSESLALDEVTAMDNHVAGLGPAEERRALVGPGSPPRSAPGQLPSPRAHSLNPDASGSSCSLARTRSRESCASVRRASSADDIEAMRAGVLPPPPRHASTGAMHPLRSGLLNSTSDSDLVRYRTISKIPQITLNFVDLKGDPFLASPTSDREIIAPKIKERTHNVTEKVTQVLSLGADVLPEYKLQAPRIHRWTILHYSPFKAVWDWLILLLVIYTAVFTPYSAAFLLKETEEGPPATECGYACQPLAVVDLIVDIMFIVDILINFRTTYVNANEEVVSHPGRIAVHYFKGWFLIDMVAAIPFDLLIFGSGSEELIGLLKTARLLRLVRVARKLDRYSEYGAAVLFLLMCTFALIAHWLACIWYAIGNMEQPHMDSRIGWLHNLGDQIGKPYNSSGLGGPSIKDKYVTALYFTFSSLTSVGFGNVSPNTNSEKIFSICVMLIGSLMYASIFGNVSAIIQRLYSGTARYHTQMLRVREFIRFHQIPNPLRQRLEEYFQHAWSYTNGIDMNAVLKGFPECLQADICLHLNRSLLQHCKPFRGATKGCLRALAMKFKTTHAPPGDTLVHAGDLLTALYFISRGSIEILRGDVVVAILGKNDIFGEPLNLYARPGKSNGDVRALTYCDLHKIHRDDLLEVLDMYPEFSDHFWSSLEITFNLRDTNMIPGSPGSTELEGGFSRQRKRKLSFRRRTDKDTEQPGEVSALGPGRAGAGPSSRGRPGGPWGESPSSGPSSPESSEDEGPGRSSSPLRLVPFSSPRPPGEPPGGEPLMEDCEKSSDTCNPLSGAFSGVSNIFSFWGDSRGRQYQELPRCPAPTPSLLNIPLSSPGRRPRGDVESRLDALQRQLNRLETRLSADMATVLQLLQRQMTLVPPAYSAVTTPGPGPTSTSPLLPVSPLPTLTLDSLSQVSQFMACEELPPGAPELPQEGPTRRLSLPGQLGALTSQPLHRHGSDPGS
Sequence of Bile salt export pump (O95342 whole entry): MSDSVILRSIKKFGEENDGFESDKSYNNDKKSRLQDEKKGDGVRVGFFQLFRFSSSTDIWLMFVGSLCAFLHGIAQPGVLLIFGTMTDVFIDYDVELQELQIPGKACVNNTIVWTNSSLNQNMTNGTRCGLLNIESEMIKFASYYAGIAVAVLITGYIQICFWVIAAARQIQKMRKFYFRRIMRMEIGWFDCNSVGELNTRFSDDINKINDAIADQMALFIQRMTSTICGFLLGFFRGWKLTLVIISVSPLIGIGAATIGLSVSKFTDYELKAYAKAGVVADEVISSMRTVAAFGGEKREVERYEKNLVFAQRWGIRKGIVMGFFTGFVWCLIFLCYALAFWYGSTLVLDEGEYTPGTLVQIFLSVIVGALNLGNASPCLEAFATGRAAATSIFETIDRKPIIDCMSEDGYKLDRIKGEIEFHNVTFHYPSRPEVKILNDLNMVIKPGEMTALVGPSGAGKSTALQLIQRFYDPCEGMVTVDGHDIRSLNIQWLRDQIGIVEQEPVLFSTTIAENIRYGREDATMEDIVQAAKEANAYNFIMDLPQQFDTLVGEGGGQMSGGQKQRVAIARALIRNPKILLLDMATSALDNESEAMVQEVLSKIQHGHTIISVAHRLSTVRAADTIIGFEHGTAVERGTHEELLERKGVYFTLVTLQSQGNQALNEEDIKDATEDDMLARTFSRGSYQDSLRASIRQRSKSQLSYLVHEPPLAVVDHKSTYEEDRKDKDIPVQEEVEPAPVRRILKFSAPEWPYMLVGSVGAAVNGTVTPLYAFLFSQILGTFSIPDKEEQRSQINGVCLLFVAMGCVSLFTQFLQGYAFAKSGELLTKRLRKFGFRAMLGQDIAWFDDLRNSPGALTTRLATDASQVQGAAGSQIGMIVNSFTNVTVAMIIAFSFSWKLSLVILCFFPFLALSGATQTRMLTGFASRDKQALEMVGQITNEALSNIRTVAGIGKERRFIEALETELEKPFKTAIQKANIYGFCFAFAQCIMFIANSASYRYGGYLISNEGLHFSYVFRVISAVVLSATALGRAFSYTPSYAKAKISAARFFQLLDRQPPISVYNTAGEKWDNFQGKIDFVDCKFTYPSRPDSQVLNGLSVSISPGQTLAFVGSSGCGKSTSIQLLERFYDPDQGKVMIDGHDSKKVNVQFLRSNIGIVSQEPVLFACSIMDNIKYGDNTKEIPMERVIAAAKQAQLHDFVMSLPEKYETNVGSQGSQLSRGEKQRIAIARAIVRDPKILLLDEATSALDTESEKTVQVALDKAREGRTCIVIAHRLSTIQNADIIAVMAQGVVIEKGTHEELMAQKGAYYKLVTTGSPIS

C[C@@H](NCCCc1cccc(C(F)(F)F)c1)c1cccc2ccccc12
AC50 (Bile salt export pump): 58 µM
AC50 [1]: 1.3 µM

COc1ccc(CC2c3cc(OC)c(OC)cc3CC[N+]2(C)CCC(=O)OCCCCCOC(=O)CC[N+]2(C)CCc3cc(OC)c(OC)cc3C2Cc2ccc(OC)c(OC)c2)cc1OC (stereo unspecified)
AC50 (Bile salt export pump): 170 µM
AC50 [1]: 0.16 µM

CCN1CCN(Cc2ccc(Nc3ncc(F)c(-c4cc(F)c5nc(C)n(C(C)C)c5c4)n3)nc2)CC1 [ABEMACICLIB]
AC50 (Bile salt export pump): 33 µM
AC50 [1]: 6 µM

COc1ccccc1Oc1c(NS(=O)(=O)c2ccc(C(C)(C)C)cc2)nc(-c2ncccn2)nc1OCCO [BOSENTAN]
AC50 (Bile salt export pump): 18 µM
AC50 [1]: > 30 µM

CC(C(=O)O)c1ccc2c(c1)[nH]c1ccc(Cl)cc12 (stereo unspecified) [CARPROFEN]
AC50 (Bile salt export pump): 120 µM
AC50 [1]: > 30 µM

COc1ccccc1OCCNCC(O)COc1cccc2[nH]c3ccccc3c12 (stereo unspecified) [CARVEDILOL]
AC50 (Bile salt export pump): 79 µM

O=C1CCc2cc(OCCCCc3nnnn3C3CCCCC3)ccc2N1 [CILOSTAZOL]
AC50 (Bile salt export pump): 62 µM
AC50 [1]: > 30 µM

C[C@@H](Oc1cc(-c2cnn(C3CCNCC3)c2)cnc1N)c1c(Cl)ccc(F)c1Cl [CRIZOTINIB]
AC50 (Bile salt export pump): 154 µM

O=C1CN(/N=C/c2ccc(-c3ccc([N+](=O)[O-])cc3)o2)C(O)=N1 [DANTROLENE]
AC50 (Bile salt export pump): 35 µM
AC50 [1]: > 30 µM

CN(C)CC[C@@H](c1ccc(Cl)cc1)c1ccccn1 [DEXCHLORPHENIRAMINE]
AC50 (Bile salt export pump): > 300 µM

CC(C)N(CCC(C(N)=O)(c1ccccc1)c1ccccn1)C(C)C (stereo unspecified) [DISOPYRAMIDE]
AC50 (Bile salt export pump): > 300 µM

C[C@H]1c2cccc(O)c2C(=O)C2=C(O)[C@]3(O)C(=O)C(C(N)=O)=C(O)[C@@H](N(C)C)[C@@H]3[C@@H](O)[C@@H]21 [DOXYCYCLINE]
AC50 (Bile salt export pump): > 300 µM
AC50 [1]: > 30 µM

C[C@]12C=CC(=O)N[C@@H]1CC[C@@H]1[C@@H]2CC[C@]2(C)[C@@H](C(=O)Nc3cc(C(F)(F)F)ccc3C(F)(F)F)CC[C@@H]12 [DUTASTERIDE]
AC50 (Bile salt export pump): 14 µM
AC50 [1]: > 30 µM

CN1C[C@H](C(=O)N[C@]2(C)O[C@@]3(O)[C@@H]4CCCN4C(=O)[C@H](Cc4ccccc4)N3C2=O)C=C2c3cccc4[nH]cc(c34)C[C@H]21 [ERGOTAMINE]
AC50 (Bile salt export pump): 25 µM
AC50 [1]: 14.4 µM

CN(C)CCC[C@@]1(c2ccc(F)cc2)OCc2cc(C#N)ccc21 [ESCITALOPRAM]
AC50 (Bile salt export pump): > 300 µM

CC(C)Cc1ccc(C(C)C(=O)O)cc1 (stereo unspecified) [IBUPROFEN]
AC50 (Mu-type opioid receptor): > 30 µM
AC50 (D(1A) dopamine receptor): > 30 µM
AC50 (Histamine H3 receptor): > 30 µM
AC50 [2]: > 30 µM
AC50 (Bile salt export pump): > 300 µM
AC50 [3]: > 30 µM
AC50 (Thromboxane A2 receptor [4]): > 30 µM
AC50 (Acetylcholinesterase): > 30 µM
AC50 [5]: > 30 µM
AC50 [6]: > 30 µM
AC50 (Thromboxane A2 receptor [7]): > 30 µM
AC50 (Prothrombin): > 30 µM
AC50 [8]: > 30 µM
AC50 (D(3) dopamine receptor): > 30 µM
AC50 [9]: > 30 µM

CN1C(C(=O)Nc2ccccn2)=C(O)c2ccccc2S1(=O)=O [PIROXICAM]
AC50 (Mu-type opioid receptor): > 30 µM
AC50 (D(1A) dopamine receptor): > 30 µM
AC50 (Histamine H3 receptor): > 30 µM
AC50 [2]: > 30 µM
AC50 (Bile salt export pump): 200 µM
AC50 [1]: > 30 µM
AC50 [3]: > 30 µM
AC50 (Thromboxane A2 receptor [4]): > 30 µM
AC50 (Acetylcholinesterase): > 30 µM
AC50 [5]: > 30 µM
AC50 [6]: > 30 µM
AC50 (Thromboxane A2 receptor [7]): > 30 µM
AC50 (Prothrombin): > 30 µM
AC50 [8]: > 30 µM
AC50 (D(3) dopamine receptor): > 30 µM
AC50 [9]: > 30 µM

C=C[C@H]1C[N@@]2CC[C@H]1C[C@@H]2[C@@H](O)c1ccnc2ccc(OC)cc12 [QUINIDINE]
AC50 (Bile salt export pump): 64 µM

CO[C@H]1/C=C/O[C@@]2(C)Oc3c(C)c(O)c4c(O)c(c(/C=N/N5CCN(C)CC5)c(O)c4c3C2=O)NC(=O)/C(C)=C\C=C\[C@H](C)[C@H](O)[C@@H](C)[C@@H](O)[C@@H](C)[C@H](OC(C)=O)[C@@H]1C [RIFAMPIN]
AC50 (Bile salt export pump): 9.6 µM
AC50 [1]: > 30 µM

CC(N)C12CC3CC(CC(C3)C1)C2 (stereo unspecified) [RIMANTADINE]
AC50 (Bile salt export pump): > 300 µM
AC50 [1]: > 30 µM

CN(C)CCc1c[nH]c2ccc(Cn3cncn3)cc12 [RIZATRIPTAN]
AC50 (Bile salt export pump): > 300 µM
AC50 [1]: > 30 µM

CC(C)c1nc(N(C)S(C)(=O)=O)nc(-c2ccc(F)cc2)c1/C=C/[C@@H](O)C[C@@H](O)CC(=O)O [ROSUVASTATIN]
AC50 (Bile salt export pump): 160 µM
AC50 [1]: > 30 µM

N[C@@H](CC(=O)N1CCn2c(nnc2C(F)(F)F)C1)Cc1cc(F)c(F)cc1F [SITAGLIPTIN]
AC50 (Bile salt export pump): > 300 µM

Nc1ccc(S(=O)(=O)Nc2nccs2)cc1 [SULFATHIAZOLE]
AC50 (Bile salt export pump): > 300 µM
AC50 [1]: > 30 µM

O=C1C(CC[S+]([O-])c2ccccc2)C(=O)N(c2ccccc2)N1c1ccccc1 (stereo unspecified) [SULFINPYRAZONE]
AC50 (Bile salt export pump): 24 µM
AC50 [1]: > 30 µM

CCN(CC)CCNC(=O)c1c(C)[nH]c(/C=C2\C(=O)Nc3ccc(F)cc32)c1C [SUNITINIB]
AC50 (Bile salt export pump): 34 µM

C=CC[C@@H]1/C=C(\C)C[C@H](C)C[C@H](OC)[C@H]2O[C@@](O)(C(=O)C(=O)N3CCCC[C@H]3C(=O)O[C@H](/C(C)=C/[C@@H]3CC[C@@H](O)[C@H](OC)C3)[C@H](C)[C@@H](O)CC1=O)[C@H](C)C[C@@H]2OC [TACROLIMUS ANHYDROUS]
AC50 (Bile salt export pump): 11 µM
AC50 [1]: > 30 µM

COc1cc2nc(N3CCN(C(=O)C4CCCO4)CC3)nc(N)c2cc1OC (stereo unspecified) [TERAZOSIN]
AC50 (Mu-type opioid receptor): > 30 µM
AC50 (D(1A) dopamine receptor): 27.8 µM
AC50 (Histamine H3 receptor): > 30 µM
AC50 [2]: > 30 µM
AC50 (Bile salt export pump): > 300 µM
AC50 [3]: > 30 µM
AC50 (Thromboxane A2 receptor [4]): > 30 µM
AC50 (Acetylcholinesterase): 22.9 µM
AC50 [5]: > 30 µM
AC50 [6]: > 30 µM
AC50 (Thromboxane A2 receptor [7]): > 30 µM
AC50 (Prothrombin): > 10 µM
AC50 [8]: > 30 µM
AC50 (D(3) dopamine receptor): > 30 µM
AC50 [10]: > 30 µM
AC50 [9]: > 30 µM

CC(C)(C)NCC(O)c1cc(O)cc(O)c1 (stereo unspecified) [TERBUTALINE]
AC50 (Bile salt export pump): > 300 µM
AC50 [1]: > 30 µM

CC(S)C(=O)NCC(=O)O (stereo unspecified) [TIOPRONIN]
AC50 (Bile salt export pump): > 300 µM
AC50 [1]: > 30 µM

C[C@H](CCC(=O)O)[C@H]1CC[C@H]2[C@@H]3[C@@H](O)C[C@@H]4C[C@H](O)CC[C@]4(C)[C@H]3CC[C@]12C [URSODIOL]
AC50 (Bile salt export pump): 95 µM
AC50 [1]: > 30 µM

Cc1onc(-c2ccccc2)c1-c1ccc(S(N)(=O)=O)cc1 [VALDECOXIB]
AC50 (Mu-type opioid receptor): > 30 µM
AC50 (D(1A) dopamine receptor): > 30 µM
AC50 (Histamine H3 receptor): > 30 µM
AC50 [2]: 2.31 µM
AC50 (Bile salt export pump): 240 µM
AC50 [1]: > 30 µM
AC50 [3]: > 30 µM
AC50 (Thromboxane A2 receptor [4]): > 30 µM
AC50 (Acetylcholinesterase): > 30 µM
AC50 [5]: > 30 µM
AC50 [6]: > 30 µM
AC50 (Thromboxane A2 receptor [7]): > 30 µM
AC50 (Prothrombin): > 30 µM
AC50 [8]: > 30 µM
AC50 (D(3) dopamine receptor): > 30 µM
AC50 [9]: > 30 µM
